Reference: patent US20100047371A1, “COMPOSITIONS AND METHODS FOR ORAL CANCER CHEMOPREVENTION USING BERRY PREPARATIONS AND EXTRACTS” (priority 2006, published 2010)

What was measured:
[1] = test system: Human Oral Mucosa Explant Tissues; assay: Effect of final gel pH on anthocyanin uptake into human oral mucosa explant tissues; format: in vitro ADME; settings: 10% w/w FBR gel
Method: Anthocyanin content in sera, saliva, and tissue explants was evaluated by an HPLC-MS assay. The respective samples (sera, saliva or tissue homogenates) were dissolved in 90% solvent A (water plus 1% formic acid) and 10% solvent B (acetonitrile plus 1% formic acid) and then separated on a Symmetry C18 reversed-phase column and analyzed using a Waters 2695 gradient HPLC separation module equipped with a 996 photodiode-array (PDA) UV/visible absorbance detector (Milford, Mass.). The solvent system consisted of a step gradient from 90% A to 50% B over 15 minutes, and the absorption spectra were recorded from 200-800 nm with the inline PDA detector. Mass spectrometry was conducted on a quadrupole ion tunnel mass spectrometer equipped with a Z-spray ESI source. Explant protein levels were determined by the Lowry method, using bovine γ-globulin as the standard protein [Lippman et al., 1993]. Tissue explants, specifically human oral mucosal explants, were used to determine the in vitro effects of FBR content and pH on anthocyanin uptake. Human oral tissues for the tissue explant studies were obtained from consenting volunteers who were undergoing elective oral surgery procedures. To confirm “no pathologic diagnosis”, a portion of each of these tissues was submitted for light microscopic evaluation. […] Tissues for explant experiments were immediately placed in an artificial saliva transport medium, which also served as the incubation medium for the gel absorption studies. The composition of the artificial saliva used for tissue transport and incubation was (final concentrations): sodium carboxymethylcellulose (0.5%), sorbitol (165 mM), NaCl (14 mM), KCl (16 mM), calcium chloride dehydrate (1.0 mM), MgCl2 (0.63 mM), Trizma hydrochloride (2.0 mM). Tissues from eight donors were used for preliminary studies to compare the penetration of anthocyanins from the 5% berry gel and the 10% FBR gel, both at a final pH of 6.5. In order to account for heterogeneity among human donors, tissue samples were hemisected. One tissue portion treated with 5% and the other with 10% FBR gels. One gram of gel (containing either 5% or 10% w/w FBR) was placed on the epithelial surface of the explant, followed by gently rubbing of the site for 30 seconds to facilitate uptake. Explants were then placed into artificial saliva, incubated for 30 minutes (37° C., 5% CO2), and then frozen at −80° C. until HPLC-mass spectroscopy analyses as previously reported [Rodrigo et al., in press]. Tissue preparation for HPLC analyses consisted of homogenization of the entire oral mucosal specimen, removal of an aliquot for sample protein level determination, followed by the addition of collagenase type II (0.1 mg/mL, GIBCO, Grand Island, N.Y.) and 1% formic acid. Samples were then placed on a Sep Pack (Millipore, Billerica, Mass.), eluted with methanol, and dried under argon gas. Additional oral mucosal explant studies were conducted to compare the effect of FBR gel pH on absorption into oral mucosal explants. Tissues from eleven donors were used for these studies, and handling was as described above with the exception that all gels contained 10% w/w FBR and were formulated at a final pH of 3.5 or 6.5. […] Large differences (up to 15-fold) in detectable anthocyanin levels were found in the gel treated donor tissues; findings that likely reflect the extensive heterogeneity within human tissues that affects tissue penetrative abilities.

[2] = Human pharmacokinetic study: anthocyanins in saliva and peripheral blood after topical gel application; format: in vivo; settings: for Anthocyanin concentration in saliva / Anthocyanin concentration in peripheral blood: 1.0 g 5% FBR Gel, pH 6.5 topical to floor of mouth; for Anthocyanin concentration in saliva: saliva collected 2-5 min after application; for Anthocyanin concentration in peripheral blood: blood drawn five minutes after application
Method: Anthocyanin content in sera, saliva, and tissue explants was evaluated by an HPLC-MS assay. The respective samples (sera, saliva or tissue homogenates) were dissolved in 90% solvent A (water plus 1% formic acid) and 10% solvent B (acetonitrile plus 1% formic acid) and then separated on a Symmetry C18 reversed-phase column and analyzed using a Waters 2695 gradient HPLC separation module equipped with a 996 photodiode-array (PDA) UV/visible absorbance detector (Milford, Mass.). The solvent system consisted of a step gradient from 90% A to 50% B over 15 minutes, and the absorption spectra were recorded from 200-800 nm with the inline PDA detector. Mass spectrometry was conducted on a quadrupole ion tunnel mass spectrometer equipped with a Z-spray ESI source. Explant protein levels were determined by the Lowry method, using bovine γ-globulin as the standard protein [Lippman et al., 1993].
Next, evaluation of anthocyanin uptake into human oral mucosa from FBR gels prepared as described in Example 1 was undertaken. For in-vivo studies, participation of human subjects was conducted in accordance with an IRB approved protocol. […] For the phamacokinetic analyses, nine consenting adult volunteers dried the anterior floor of their mouth, placed 1.0 g of 5% berry gel (pH 6.5), and massaged the gel in place for 30 seconds to facilitate uptake. Two minutes after gel application saliva was collected for the next three minutes. Peripheral blood was drawn five minutes after gel application. Following clotting, sera samples were collected, and both the sera and saliva samples were stored at −80° C. until LC-MS analysis as described below.
All nine participants had detectable anthocyanin levels of three anthocyanins (cyanidin 3-rutinoside, cyanidin 3-xylosylrutinoside, cyanidin 3-glucoside) in either their saliva or blood, and 4 donors had detectable levels of two anthocyanins (cyanidin 3-rutinoside and cyanidin 3-xylosylrutinoside) in their peripheral blood. Saliva from eight of the nine donors contained detectable levels of either two (cyanidin 3-rutinoside and cyanidin 3-xylosylrutinoside-4 donors) or three anthocyanins (4 donors).

[3] = average of eleven explant samples

Anthocyanin uptake, Gel pH 3.5, Avg. ± SEM [1, 3]: 31.9 pmol per mg tissue
Anthocyanin uptake, Gel pH 6.5, Avg. ± SEM [1, 3]: 113.0 pmol per mg tissue
% change 3.5 to 6.5, Avg. ± SEM ([1]; average of explant samples): 956.3%
% change 3.5 to 6.5 ([1]; explant sample 001): 474.1%
Anthocyanin uptake, Gel pH 3.5 ([1]; explant sample 001): 116.4 pmol per mg tissue
Anthocyanin uptake, Gel pH 6.5 ([1]; explant sample 001): 668.3 pmol per mg tissue
% change 3.5 to 6.5 ([1]; explant sample 002): 627.2%
Anthocyanin uptake, Gel pH 3.5 ([1]; explant sample 002): 9.3 pmol per mg tissue
Anthocyanin uptake, Gel pH 6.5 ([1]; explant sample 002): 67.8 pmol per mg tissue
% change 3.5 to 6.5 ([1]; explant sample 003): −14.8%
Anthocyanin uptake, Gel pH 3.5 ([1]; explant sample 003): 34.3 pmol per mg tissue
Anthocyanin uptake, Gel pH 6.5 ([1]; explant sample 003): 29.2 pmol per mg tissue
% change 3.5 to 6.5 ([1]; explant sample 004): −64.4%
Anthocyanin uptake, Gel pH 3.5 ([1]; explant sample 004): 26.3 pmol per mg tissue
Anthocyanin uptake, Gel pH 6.5 ([1]; explant sample 004): 9.4 pmol per mg tissue
% change 3.5 to 6.5 ([1]; explant sample 005): −20.0%
Anthocyanin uptake, Gel pH 3.5 ([1]; explant sample 005): 3.5 pmol per mg tissue
Anthocyanin uptake, Gel pH 6.5 ([1]; explant sample 005): 2.8 pmol per mg tissue
% change 3.5 to 6.5 ([1]; explant sample 006): 362.1%
Anthocyanin uptake, Gel pH 3.5 ([1]; explant sample 006): 45.7 pmol per mg tissue
Anthocyanin uptake, Gel pH 6.5 ([1]; explant sample 006): 211.1 pmol per mg tissue
% change 3.5 to 6.5 ([1]; explant sample 007): 45.1%
Anthocyanin uptake, Gel pH 3.5 ([1]; explant sample 007): 5.6 pmol per mg tissue
Anthocyanin uptake, Gel pH 6.5 ([1]; explant sample 007): 8.1 pmol per mg tissue
% change 3.5 to 6.5 ([1]; explant sample 008): 8905.1%
Anthocyanin uptake, Gel pH 3.5 ([1]; explant sample 008): 0.4 pmol per mg tissue
Anthocyanin uptake, Gel pH 6.5 ([1]; explant sample 008): 35.1 pmol per mg tissue
% change 3.5 to 6.5 ([1]; explant sample 009): 395.1%
Anthocyanin uptake, Gel pH 3.5 ([1]; explant sample 009): 43.9 pmol per mg tissue
Anthocyanin uptake, Gel pH 6.5 ([1]; explant sample 009): 207.4 pmol per mg tissue
% change 3.5 to 6.5 ([1]; explant sample 010): −91.4%
Anthocyanin uptake, Gel pH 3.5 ([1]; explant sample 010): 37.1 pmol per mg tissue
Anthocyanin uptake, Gel pH 6.5 ([1]; explant sample 010): 3.2 pmol per mg tissue
% change 3.5 to 6.5 ([1]; explant sample 011): −98.7%
Anthocyanin uptake, Gel pH 3.5 ([1]; explant sample 011): 28.7 pmol per mg tissue
Anthocyanin uptake, Gel pH 6.5 ([1]; explant sample 011): 0.4 pmol per mg tissue
number of donors with detectable levels in peripheral blood ([2]; of nine participants, 5% berry gel (pH 6.5), five minutes after application): 4 donors
Anthocyanin concentration in saliva ([2]; patient 101): 3.5 pmol/mL
Anthocyanin concentration in saliva ([2]; patient 102): 1.7 pmol/mL
Anthocyanin concentration in peripheral blood ([2]; patient 103): 2.3 pmol/mL
Anthocyanin concentration in saliva ([2]; patient 104): 4.6 pmol/mL
Anthocyanin concentration in peripheral blood ([2]; patient 105): 7.4 pmol/mL
Anthocyanin concentration in saliva ([2]; patient 105): 8.3 pmol/mL
Anthocyanin concentration in peripheral blood ([2]; patient 106): 5.6 pmol/mL
Anthocyanin concentration in saliva ([2]; patient 106): 6.1 pmol/mL
Anthocyanin concentration in peripheral blood ([2]; patient 107): 5.8 pmol/mL
Anthocyanin concentration in saliva ([2]; patient 107): 9.3 pmol/mL
Anthocyanin concentration in saliva ([2]; patient 108): 4.2 pmol/mL
Anthocyanin concentration in saliva ([2]; patient 109): 2.2 pmol/mL
SMILES: C[C@@H]1O[C@@H](OC[C@H]2O[C@@H](Oc3cc4c(O)cc(O)cc4[o+]c3-c3ccc(O)c(O)c3)[C@H](O)[C@@H](O)[C@@H]2O)[C@H](O)[C@H](O)[C@H]1O [cyanidin 3-rutinoside]
